Data as given in patent US5885994A, “Tetrahydroquinoxaline dopamine D4 receptor antagonists” (Warner-Lambert Company, priority 1998, dated 1999).
Where two headings read alike, the source gives them in different places.

How the values were obtained:
human D4.2 receptor = target: T1, human D4.2 receptor (Homo sapiens, UniProt P21917, DEL265-296); assay: Inhibition of [3H]spiperone binding to human dopamine D4.2 receptors; settings: human D4.2, CHO K1 membranes
T1 construct: expressed in transfected cells; host or cells: CHO K1 cells
T1 sequence (P21917 with tags, fused parts or gaps DEL265-296): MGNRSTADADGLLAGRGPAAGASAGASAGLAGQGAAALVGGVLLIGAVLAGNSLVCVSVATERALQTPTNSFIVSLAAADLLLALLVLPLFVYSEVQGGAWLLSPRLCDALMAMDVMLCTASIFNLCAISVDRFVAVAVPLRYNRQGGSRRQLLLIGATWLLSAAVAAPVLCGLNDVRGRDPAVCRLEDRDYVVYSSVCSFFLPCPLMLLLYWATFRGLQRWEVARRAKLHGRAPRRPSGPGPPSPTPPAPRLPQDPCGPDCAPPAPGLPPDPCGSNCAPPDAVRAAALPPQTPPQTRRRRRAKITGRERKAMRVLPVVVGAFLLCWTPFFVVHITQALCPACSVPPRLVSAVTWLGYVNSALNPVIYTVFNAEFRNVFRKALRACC
Text: (§1) A cell line expressing human dopamine D2 (Long form) receptors was purchased from Oregon Health Sciences University, Portland, Oreg. The D2 receptor cDNA was subcloned into an expression vector, pRc/CMV. The plasmids were transfected by electroporation into CHO K1 cells. A single stable transfectant, resistant to the antibiotic 418, was isolated and selected for use in the binding studies. For D4 binding, CHO K1 cells stably transfected to express the human recombinant dopamine D4.2 receptor subtype, as described by Shih, et al., "The expression and functional characterization of human dopamine D4.2 receptor in CHO K1 cells," Soc. Neurosci., 1995;21(Part 1):621.
(§2) CHO K1 cells expressing either human D2 and D4.2 receptors were grown in 162 cm^2 culture flasks in F12 medium (Gibco Laboratories, Grand Island, N.Y.) supplemented with 10% fetal bovine serum (FBS, Hyclone, Logan, Utah) in an atmosphere of 5% CO2 /95% air at 37° C. Cells were grown until confluent, after which growth medium was removed and replaced with 0.02% ethylene diamine tetracetate (EDTA) in a phosphate-buffered saline solution (Sigma Chemical Co., St. Louis, Mo.) and scraped from the flasks. The cells were centrifuged at about 1000×g for 10 minutes at […] and then resuspended in TEM buffer (25 mM Tris-HCl, pH 7.4, 5 mM EDTA, and 6 mM MgCl2) for D2 or the D4.2 buffer (50 mM Tris-HCl, pH 7.4, 5 mM EDTA, 1.5 mM CaCl2, 5 mM KCl, and 120 mM NaCl) and homogenized. The membranes were pelleted by centrifugation at 20,000×g at […] for 20 minutes. Then the pellets were resuspended in appropriate buffer at 1 mL/flask and stored at -70° C. until used in the receptor binding assay.
(§3) Receptor Binding Assays: D2,D4.2 Dopamine Receptors
(§4) After 60 minutes incubation at 25° C., the incubations were terminated by rapid filtration through Whatmann F/B lass fibre filters (soaked for 1 hour in 0.5% polyethylenimine) on a cell harvester, with three washes of 1 mL ice-cold buffer. Individual filter disks containing the bound ligand were placed in counting vials with 4 mL of scintillation fluid (Ready Gel, Beckman Instrument Inc., Fullerton, Calif.) and then counted in a Beckman LS-6800 liquid scintillation counter at an efficiency of 45%. Nonspecific binding was defined in presence of 1 mM of haloperidol.
(§5) Saturation and competition binding data were analyzed using an iterative nonlinear least-square curve-fitting Ligand program. In competition experiments, apparent Ki values were calculated from IC50 values by method of Cheng and Prusoff, "Relationship between the inhibition constant (Ki) and the concentration of inhibitor which causes 50% inhibition (IC50) of an enzymatic reaction," Biochem. Pharmacol., 1973;22:3099-3108. Experimental compounds were made up as stock solutions in dimethyl sulfoxide (DMSO). […] Each observation was carried out in triplicate. To allow these calculations, Ki values were measured for the interaction of various ligands with the receptor. […]

human DA D4.2 receptor = target: T2, human DA D4.2 receptor (Homo sapiens, UniProt P21917, DEL265-296); assay: [3H]Thymidine uptake assay (block of quinpirole stimulation in CHO pro-5 cells transfected with human DA D4.2 receptor); type: cell-based; settings: human D4.2, quinpirole-stimulated uptake
T2 construct: expressed in transfected cells
T2 sequence (P21917 with tags, fused parts or gaps DEL265-296): T1 sequence (P21917 with tags, fused parts or gaps DEL265-296)
Protocol: Compounds were tested for their ability to bind to dopamine (DA) receptors as measured by their inhibition of [^3 H]spiperone binding to the human D2, and D4.2 receptors (Pugsley, et al., 1995). The ability of test compounds to block the stimulation of [^3 H]thymidine uptake in CHO pro-5 cells transfected with human DA D4.2 receptor cDNA caused by the DA agonist quinpirole was employed as an in vitro measure of DA receptor antagonist activity (Pugsley, et al., 1995). The effects of compounds on synthesis rates of rat brain catecholamines were estimated by measuring the accumulation of [3-(3,4-dihydroxyphenyl)-L-alanine (DOPA) after administration of the L-aromatic amino acid decarboxylase inhibitor, NSD 1015 (Pugsley, et al., 1995).
[^3 H]Thymidine Uptake Assay
The effects of test compounds on [^3 H]thymidine uptake were carried out essentially as described by Pugsley, et al., 1995. CHO p-5 cells transfected with human D4.2 cDNA were seeded into 96-well plates at a density of about 5000 cells/well and were grown at 37° C. in a minimum essential medium (aMEM, Gibco) with 10% calf serum for 2 days. The wells were then rinsed three times with serum-free media. Fresh media ([…]) was added along with […] of test compound in water or vehicle alone. Eight wells of each plate received […] of aMEM with 10% fetal calf serum. After culture for 16 to 17 hours, [3H]thymidine ([…]) was added for 4 hours. The cells were trypsinized and harvested onto filter mats with a 96-well Brandel cell harvester. The filters were counted in a Beta-Plate scintillation counter.

human D2 receptor = human D2 receptor (Homo sapiens, UniProt P14416); assay: Inhibition of [3H]spiperone binding to human dopamine D2 receptors; settings: human D2 (Long form), CHO K1 membranes
human D2 receptor, sequence (P14416 whole entry): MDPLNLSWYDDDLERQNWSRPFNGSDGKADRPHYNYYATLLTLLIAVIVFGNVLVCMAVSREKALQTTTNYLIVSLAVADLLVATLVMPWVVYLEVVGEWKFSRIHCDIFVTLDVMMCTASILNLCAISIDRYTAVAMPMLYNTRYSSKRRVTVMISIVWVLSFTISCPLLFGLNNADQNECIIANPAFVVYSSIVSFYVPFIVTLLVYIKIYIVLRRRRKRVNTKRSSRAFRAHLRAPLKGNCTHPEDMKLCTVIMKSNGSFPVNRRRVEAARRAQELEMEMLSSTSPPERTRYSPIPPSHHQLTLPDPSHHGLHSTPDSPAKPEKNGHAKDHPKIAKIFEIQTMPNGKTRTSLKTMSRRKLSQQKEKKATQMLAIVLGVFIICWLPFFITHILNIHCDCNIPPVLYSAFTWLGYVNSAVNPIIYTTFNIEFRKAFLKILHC
Text: as §1, §2, §3, §4, §5

[1] = system: synthesis rates of rat brain catecholamines; settings: ip
Protocol: Test compounds were administered to rats i.p. 30 minutes before the injection of the L-aromatic amino acid decarboxylase inhibitor, NSD 1015 (100 mg/kg i.p.). Rats were sacrificed by decapitation 30 minutes later. The striatum and mesolimbic regions were rapidly dissected from the brains and stored at -70° C. until assayed. Synthesis rates of rat brain catecholamines were estimated by measuring the accumulation of the DA precursor DOPA after NSD 1015 administration by HPLC with electrochemical detection (Puglsey, et al., 1995). Each value represents the mean of four determinations and is expressed as a percent of the control values.

[2] = system: amphetamine-stimulated locomotion; assay: Blockade of amphetamine-stimulated locomotion in rats; type: in vivo, rat
Text: PROTOCOL FOR THE BLOCKADE OF AMPHETAMINE-STIMULATED LOCOMOTION IN RATS
The blockade of amphetamine-stimulated locomotion procedure is a modification of the Locomotor Activity Protocol in the Omnitech Digiscan Activity Monitors described above. The blockade of amphetamine-stimulated locomotion procedure uses the central nervous system stimulant d-amphetamine to assess antipsychotic activity of dopaminergic agents.
Male Sprague-Dawley rats (Harlan Labs) were used for these studies. Drugs were dissolved in saline or water, and administered either orally (PO) or intraperitoneally (IP) in volumes of 5 mL/kg. Saline control rats and amphetamine (0.5 mg/kg IP) control rats are included with each study (n=4-6 rats per treatment group). For the IP studies, amphetamine is given 20 minutes prior to the drug, after which a 30 minute locomotor activity test is conducted. For the oral study, drug is dosed 30 minutes prior to the test, while amphetamine is given 15 minutes prior to the test, which allows time for oral absorption. Locomotor activity (centimeters travelled per 30 minute test) is measured in 16"×16" open chambers. Amphetamine generally produces a 2- to 3-fold increase in locomotion over saline controls. Drug effects are reported as percent reversal of amphetamine-stimulated locomotion. Significant changes in amphetamine-stimulated locomotion, relative to amphetamine treated controls, were determined by t-test. The dose which would reverse amphetamine-stimulated locomotion by 50% (ED50) and the 95% confidence limits were estimated by regression analysis.

[3] = system: apomorphine-induced disruption of prepulse inhibition; settings: rat, background statement; cited from earlier work

Cc1ccc(N2CCN(Cc3ccc4c(c3)NCCN4)CC2)cc1Cl [Example 1, 6-[4-(3-Chloro-4-methylphenyl)piperazin-1-ylmethyl]-1,2,3,4-tetrahydroquinoxaline]
IC50 (human D4.2 receptor): 3.9 nM | IC50 (human DA D4.2 receptor): 10 nM | IC50 (human D2 receptor): 1810 nM | DA Synthesis in Rat Hippocampus [1]: +62% of the control values | DA Synthesis in Rat Striatum [1]: -9% of the control values | blockade of amphetamine-stimulated locomotion (result in words) ([2]; rat, 3, 10, and 30 mg/kg IP): dose-dependent blockade | ED50 ([2]; rat, IP, read-out: blockade of amphetamine-stimulated locomotion ED50): 9.1 mg/kg | ED50 ([2]; rat, PO, read-out: oral blockade of amphetamine-stimulated locomotion ED50): > 30 mg/kg

c1ccc(N2CCN(Cc3ccc4c(c3)NCCN4)CC2)cc1 [Example 3, 6-(4-Phenylpiperazin-1-ylmethyl)-1,2,3,4-tetrahydroquinoxaline]
IC50 (human D4.2 receptor): 50 nM | IC50 (human D2 receptor): 3200 nM

COc1ccc(N2CCN(Cc3ccc4c(c3)NCCN4)CC2)cc1 [Example 4, 6-[4-(4-Methoxyphenyl)piperazin-1-ylmethyl]-1,2,3,4-tetrahydroquinoxaline]
IC50 (human D4.2 receptor): 39.3 nM

Clc1ccc(N2CCN(Cc3ccc4c(c3)NCCN4)CC2)cc1 [Example 5, 6-[4-(4-Chlorophenyl)piperazin-1-ylmethyl]1,2,3,4-tetrahydroquinoxaline]
IC50 (human D4.2 receptor): 6 nM | IC50 (human DA D4.2 receptor): 19 nM | DA Synthesis in Rat Striatum [1]: +20% of the control values

Fc1ccc(N2CCN(Cc3ccc4c(c3)NCCN4)CC2)cc1 [Example 6, 6-[4-(4-Fluorophenyl)piperazin-1-ylmethyl]-1,2,3,4-tetrahydroquinoxaline]
IC50 (human D4.2 receptor): 50.6 nM

Clc1ccc(N2CCN(Cc3ccc4c(c3)NCCN4)CC2)cc1Cl [Example 7, 6-[4-(3,4-Dichlorophenyl)piperazin-1-ylmethyl]-1,2,3,4-tetrahydroquinoxaline]
IC50 (human D4.2 receptor): 5 nM | IC50 (human D2 receptor): 1650 nM | DA Synthesis in Rat Striatum [1]: +23% of the control values | blockade of amphetamine-stimulated locomotion ([2]; rat, 30 mg/kg PO): 100%

Cc1ccc(N2CCN(Cc3ccc4c(c3)NCCN4)CC2)cc1 [Example 8, 6-(4-p-Tolylpiperazin-1-ylmethyl)-1,2,3,4-tetrahydroquinoxaline]
IC50 (human D4.2 receptor): 11.1 nM | IC50 (human DA D4.2 receptor): 8.2 nM | DA Synthesis in Rat Striatum [1]: +39% of the control values

Cc1cccc(N2CCN(Cc3ccc4c(c3)NCCN4)CC2)c1 [Example 9, 6-(4-m-Tolylpiperazin-1-ylmethyl)-1,2,3,4-tetrahydroquinoxaline]
IC50 (human D4.2 receptor): 36.3 nM

Cc1ccnc(N2CCN(Cc3ccc4c(c3)NCCN4)CC2)c1 [Example 10, 6-[4-(4-Methylpyridin-2-yl)piperazin-1-ylmethyl]-1,2,3,4-tetrahydroquinoxaline]
IC50 (human D4.2 receptor): 35 nM

FC(F)(F)c1cccc(N2CCN(Cc3ccc4c(c3)NCCN4)CC2)c1 [Example 11, 6-[4-(3-Trifluoromethylphenyl)piperazin-1-ylmethyl]-1,2,3,4-tetrahydroquinoxaline]
IC50 (human D4.2 receptor): 22 nM | IC50 (human D2 receptor): 683 nM

CC(N)Cc1ccccc1 (stereo not drawn) [amphetamine]
blocking of PPI by DA agonists (result in words) [3]: can be blocked

CN1CCc2cccc3c2[C@H]1Cc1ccc(O)c(O)c1-3 [apomorphine]
blocking of PPI by DA agonists (result in words) [3]: can be blocked

CN1CCN(C2=Nc3cc(Cl)ccc3Nc3ccccc32)CC1 [clozapine]
antagonism of DA agonist-induced disruption of PPI (result in words) [3]: can be blocked

O=C(CCCN1CCC(O)(c2ccc(Cl)cc2)CC1)c1ccc(F)cc1 [haloperidol]
antagonism of DA agonist-induced disruption of PPI (result in words) [3]: can be antagonized
